Measured values from US7198782B2, “Method for the treatment of diabetes” (priority 1998, dated 2007).

What was measured:
[1] = system: secretion of gastric acid; test: Inhibitory effect on the secretion of gastric acid in rats (Example 7); type: in vivo, rats (Wister line); details: peptide 10 μg/kg with gastrin 4 μg/kg, hypodermic injection, gastric juice pH 10 minutes later, control pH 3.2 / 3.1
Description: The inhibitory effect on the secretion of gastric acid was evaluated using rats (Wister line), by dissolving in physiological saline, the peptides synthesized in Example 6 and gastrin, a stimulator of gastric acid secretion, hypodermically injecting the previous solution, and measuring the secretion of gastric acid 10 minutes later. Gastrin was administered to obtain a dose of 4 μg/kg and the peptides of the invention were administered to obtain a dose of 10 μg/kg. The rats were immobilized on a fixator, their gastric juice was sampled by inserting a probe through the mouth into the stomach, and the pH was measured to evaluate the secretion of gastric acid. When the secretion of gastric acid was compared between the reference group with no substance administered and the administered group, the following was obtained for the inhibition on the secretion of gastric acid.

BxPC-3 cells [2] = test: Stimulating effect on insulin secretion, BxPC-3 cells (Example 3); type: cell-based, human; details: supernatant of BxPC-3 cells, 0.01 mg/well, 24 hours; control 37.6
Description: BxPC-3 cells which are insulin producing cells derived from a human pancreas (source: Dainippon Pharmaceutical Co.,Ltd. ), were cultured in RPMI 1640 media containing 10% calf fetal serum, and grown with 5% carbon dioxide gas in a humidified incubator at 37° C. The cells were treated with trypsin prior to seeding with a density of 1×10^5/well; when they reached confluency, the peptide of the invention synthesized in Example 2, the peptides A and B, which are unrelated to the invention and whose activities are unknown, as well as a control (physiological saline) were added at 0.01 mg/well, and the cells were cultured for 24 hours. Then, the concentrations of insulin present in the supernatents were measured by colorimetry with an insulin assaying kit (source: Shibayagi Co.,Ltd.).

HIT cells = test: Stimulation of insulin production by insulin producing cells, HIT cells (Example 5); type: cell-based, hamster; details: for rate of stimulation for the production of insulin (%): HIT cells, 12 hours, no substance added = 100%
Description: (§1) HIT cells, which are insulin producing hamster pancreatic cells, and BxPC-3 cells, which are human pancreatic cells (source: Dai Nippon Seiyaku), were cultured in RPMI 1640 media (source: Dai Nippon Seiyaku) containing 10% calf fetal serum, and grown with 5% carbon dioxide gas in a humidified incubator at 37° C. The cells were treated with trypsin for seeding 96-well culture plates with a density of 1×10^4/well; when the cells reached confluency, the media was exchanged to a F12 serum-free media and the cells were cultured for 8 hours. Then, the peptides of the invention produced in Example 4 were dissolved in serum-free RPMI 1640 media; various doses of the peptides indicated by the sequence number 1 for the HIT cells, and various doses of the peptides indicated by the sequence number 5 for the BxPC-3 cells, were added to the wells and the cultures were further maintained for 12 hours. After the cultures have been performed, the stimulatory effects of the peptides of the invention on the production of insulin by the cells were measured by the insulin immunoassay, to seek stimulatory effects on production in comparison to the non-treated groups. Also, the insulin immunoassay, and the calculations for the rates of stimulation for the production of insulin were actually performed as follows. Various dilutions of the supernatents from the cell culture media were added to the wells coated with immobilized anti-insulin antibodies, and reacted with anti-insulin antibody solutions, according to the protocol of the insulin assay kit commercialized by Shibayagi (Ltd.). The detection was by reacting the biotin labeling the antibodies with the steptavidin-conjugated peroxydase and measuring the coloration catalyzed by the peroxydase. The concentration of insulin was calculated from a standard curve for insulin. When examining the rates of stimulation for the production of insulin in the groups with various doses added, by taking the rate of stimulation for the production of insulin in the reference group with no substance added as 100%, the following was obtained.

BxPC-3 cells [3] = test: Stimulation of insulin production by insulin producing cells, BxPC-3 cells (Example 5); type: cell-based, human; details: 12 hours, no substance added = 100%
Description: as §1

GH3 cells = test: Stimulation of growth hormone production by growth hormone producing cells (Example 9); type: cell-based, Hamster; details: 3 days, no peptides added = 100%
Description: Hamster-derived GH3 cells (source: IFO, deposition No. 50105), which are growth hormone-producing hypophyseal cells, were grown in an F12 media (source: Dai Nippon Seiyaku) containing 15% calf fetal serum, and grown with 5% carbon dioxide gas in a humidified incubator at 37° C. The cells were treated with trypsin for seeding 96-well culture plates with a density of 1×10^4/well; when the cells reached confluency, the media was exchanged to a 15% serum F12 media and the cells were cultured for 12 hours. Then, the peptides of the invention produced in Example 7 were dissolved in 15% serum F12 media to add various doses of the peptides to the wells, and the cultures were further maintained for 3 days. After the cultures have been performed, the stimulatory effects of the peptides on the production of growth hormones by the cells were measured by the growth hormone immunoassay, to examine stimulatory the effects on the production, in comparison with the non-treated groups. Also, the growth hormone immunoassay was performed with a method of the art, the sandwich ELISA, i.e., various dilutions of the supernatents from the cell culture media were added to wells coated with immobilized anti-growth hormone antibodies, and reacted for 180 minutes at room temperature, washed before further addition of anti-growth hormone antibodies labeled with peroxydase, and reacted for 60 minutes at room temperature. After washing, the coloring reaction catalyzed by the peroxydase was measured by measuring the absorbance. The concentration of growth hormone was examined based on standard curves obtained by performing the same sandwich ELISA using already known concentrations of growth hormone. When examining the rates of stimulation for the production of growth hormones in the groups with various doses added, by taking the rate of stimulation for the production of growth hormone for the reference group with no peptides added as 100%, the following was obtained.

“Sequence No. 3: peptide predicted by comparing the cDNA sequences of the gastrin receptor; gastric acid secretion regulator (GGAGP; Artificial polypeptide which regulates insulin production.)” was tested, and the “Gastric juice pH” value [1] was 5.3 pH.

For “Sequence No. 4: peptide predicted by comparing the cDNA sequences of the gastrin receptor; gastric acid secretion regulator (MSVGGNMLIIV; Artificial polypeptide having inhibitory effect on gastric acid secretion)”, the “Gastric juice pH” value [1] was 4.8 pH.

With “peptide of the invention: peptide synthesized in Example 2, printed as having the amino acid sequence of sequence number 2 (GIP receptor derived insulin production regulator) (VGRDPAAAPALWRRRGTAPPLSAIVSQV; Artificial peptide which regulates insulin production)” the insulin concentration (BxPC-3 cells [2]) was 148 µg/mL.

With “sequence number 1: peptide of the missing (spliced) region predicted from glucagon receptor cDNAs; increases insulin production (PKAPSAQ; Artificial polypeptide which inhibits insulin production.)” the “rate of stimulation for the production of insulin (%)” value (“rate of stimulation … (%)” below) (HIT cells; 0.01 μg/well) was 102.8%, the “rate of stimulation … (%)” value (HIT cells; 0.1 μg/well) was 131.6% and the “rate of stimulation … (%)” value (HIT cells; 1 μg/well) was 184.9%. The “rate of stimulation … (%)” value (HIT cells; 10 μg/well) was 203.1% and the “production of insulin by insulin producing cells” value (HIT cells; summary in the description, cells and dose not named) was “increased significantly”.

“sequence number 5: peptide predicted from glucagon receptor cDNAs, variant of sequence number 1; increases insulin production (PQVPSAQ; Artificial polypeptide having inhibitory effects on insulin secretion)” was tested, and the “rate of stimulation … (%)” value (BxPC-3 cells [3]; 0.01 μg/well) was 110.9%, the “rate of stimulation … (%)” value (BxPC-3 cells [3]; 0.1 μg/well) was 123.3% and the “rate of stimulation … (%)” value (BxPC-3 cells [3]; 1 μg/well) was 198.2%. The “rate of stimulation … (%)” value (BxPC-3 cells [3]; 10 μg/well) was 181.1%.

With “sequence number 6: peptide predicted by comparing the amino acid sequences of somatostatin receptor; growth hormone production regulator (PSCQWVQAPACQ; Artificial polypeptide which promotes growth hormone secretion.)” the “stimulation rate of growth hormone production (%)” value (“stimulation rate … (%)” below) (GH3 cells; 0.01 μg/well) was 101.2%, the “stimulation rate … (%)” value (GH3 cells; 0.1 μg/well) was 124.1% and the “stimulation rate … (%)” value (GH3 cells; 1 μg/well) was 175.6%. The “stimulation rate … (%)” value (GH3 cells; 10 μg/well) was 190.4%.
